# Measurements published in ChEMBL document CHEMBL1208715, “Cyclic amide bioisosterism: strategic application to the design and synthesis of HCV NS5B polymerase inhibitors” (Bioorg Med Chem Lett, 2010).
# pEC50, pIC50, pKd: −log10 of the molar value.
# Test system: not listed separately
# Experiment: Cytotoxicity against human HuH7 cells by WST-1 assay
# Format: cell-based, Huh-7
# Settings: not given
row,Structure (SMILES),CC50
1,CC(C)N(c1cc(-c2ccccc2)sc1C(=O)O)C(=O)[C@H]1CC[C@H](C)CC1,48000 nM
2,C[C@H]1CC[C@H](c2ccccc2-c2cc(-c3ccccc3)sc2C(=O)O)CC1,20000 nM
3,C[C@H]1CC[C@H](n2nncc2-c2cc(-c3ccccc3)sc2C(=O)O)CC1,> 50000 nM
4,Cc1ccc(-n2nncc2-c2cc(-c3ccccc3)sc2C(=O)O)cc1,> 30000 nM

# Biological target: not listed separately
# Experiment: Inhibition of wild type HCV GT1b NS5B polymerase
# Parameters: species or system Hepacivirus hominis
# Settings: not given
row,Structure (SMILES),pKd
1,CC(C)N(c1cc(-c2ccccc2)sc1C(=O)O)C(=O)[C@H]1CC[C@H](C)CC1,7.39
2,C[C@H]1CC[C@H](n2nncc2-c2cc(-c3ccccc3)sc2C(=O)O)CC1,6.07
3,Cc1ccc(-n2nncc2-c2cc(-c3ccccc3)sc2C(=O)O)cc1,5.36

# Biological target: not listed separately
# Experiment: Inhibition of HCV GT1b NS5B polymerase
# Parameters: species or system Hepacivirus hominis
# Settings: not given
row,pIC50,Structure (SMILES)
1,5.48,Cc1ccc(-c2cc(=O)[nH]nc2-c2cc(-c3ccccc3)sc2C(=O)O)cc1
2,7.13,O=C(O)c1sc(-c2ccccc2)cc1-c1conc1C1CCCCC1
3,4.54,O=C(O)c1sc(-c2ccccc2)cc1-c1conc1-c1ccccc1
4,4.80,CCCCOc1ccccc1-c1cc(-c2ccccc2)sc1C(=O)O
5,7.38,C[C@H]1CC[C@H](c2ccccc2-c2cc(-c3ccccc3)sc2C(=O)O)CC1
6,6.47,O=C(O)c1sc(-c2ccccc2)cc1-c1cnnn1C1CCCCC1
7,6.77,CC1CCC(=Cc2ncccc2-c2cc(-c3ccccc3)sc2C(=O)O)CC1 (stereo unspecified)
8,4.49,C[C@H]1CC[C@H](c2cc(-c3cc(-c4ccccc4)sc3C(=O)O)on2)CC1
9,4.04,O=C(O)c1sc(-c2ccccc2)cc1-c1cc(=O)[nH]nc1-c1ccccc1
10,5.59,O=C(O)c1sc(-c2ccccc2)cc1-c1conc1-c1ccc(Cl)cc1
11,4.77,O=C(O)c1sc(-c2ccccc2)cc1-c1cnnn1-c1ccccc1
12,5.60,Cc1ccc(-c2nocc2-c2cc(-c3ccccc3)sc2C(=O)O)cc1
13,6.96,C[C@H]1CC[C@H](c2nocc2-c2cc(-c3ccccc3)sc2C(=O)O)CC1
14,7.66,C[C@H]1CC[C@H](c2ncccc2-c2cc(-c3ccccc3)sc2C(=O)O)CC1
15,6.21,Cc1ccc(-c2cc(=O)[nH]n2-c2cc(-c3ccccc3)sc2C(=O)O)cc1
16,5.24,O=C(O)c1sc(-c2ccccc2)cc1-c1conc1-c1ccc(F)cc1

row,Structure (SMILES),pIC50
1,CC(C)N(c1cc(-c2ccccc2)sc1C(=O)O)C(=O)[C@H]1CC[C@H](C)CC1,7.55
2,C[C@H]1CC[C@H](n2nncc2-c2cc(-c3ccccc3)sc2C(=O)O)CC1,7.00
3,Cc1ccc(-n2nncc2-c2cc(-c3ccccc3)sc2C(=O)O)cc1,6.96

# Test system: Hepatitis C virus
# Experiment: Antiviral activity against […] Con1 GT1b infected in HuH7 cells by replicon assay
# Format: functional, Hepacivirus hominis
# Settings: Huh-7
row,Structure (SMILES),pEC50
1,CC(C)N(c1cc(-c2ccccc2)sc1C(=O)O)C(=O)[C@H]1CC[C@H](C)CC1,6.64
2,C[C@H]1CC[C@H](c2ccccc2-c2cc(-c3ccccc3)sc2C(=O)O)CC1,4.92
3,C[C@H]1CC[C@H](n2nncc2-c2cc(-c3ccccc3)sc2C(=O)O)CC1,4.82
4,Cc1ccc(-n2nncc2-c2cc(-c3ccccc3)sc2C(=O)O)cc1,< 4.52

# Biological target: RNA-directed RNA polymerase (Hepacivirus hominis, UniProt O39930, M414T)
# Sequence (O39930 entry or part of it M414T): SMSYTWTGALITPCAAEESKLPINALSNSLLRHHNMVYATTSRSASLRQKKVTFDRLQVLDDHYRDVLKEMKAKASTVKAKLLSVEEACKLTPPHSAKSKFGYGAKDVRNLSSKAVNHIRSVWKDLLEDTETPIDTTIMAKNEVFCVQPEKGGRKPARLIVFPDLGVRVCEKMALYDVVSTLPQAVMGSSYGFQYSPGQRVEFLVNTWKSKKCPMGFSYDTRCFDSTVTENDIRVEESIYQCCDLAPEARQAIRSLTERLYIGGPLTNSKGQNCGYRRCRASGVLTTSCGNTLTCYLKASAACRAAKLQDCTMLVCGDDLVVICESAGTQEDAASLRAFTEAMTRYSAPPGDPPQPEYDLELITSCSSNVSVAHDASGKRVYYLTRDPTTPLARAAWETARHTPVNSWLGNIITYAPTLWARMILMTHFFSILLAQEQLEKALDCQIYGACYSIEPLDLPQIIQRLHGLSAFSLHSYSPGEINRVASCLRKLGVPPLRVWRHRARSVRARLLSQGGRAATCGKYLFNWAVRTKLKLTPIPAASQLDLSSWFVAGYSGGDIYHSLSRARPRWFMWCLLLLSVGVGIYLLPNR
# Experiment: Inhibition of HCV NS5B polymerase M414T mutant
# Settings: not given
row,Structure (SMILES),pKd
1,CC(C)N(c1cc(-c2ccccc2)sc1C(=O)O)C(=O)[C@H]1CC[C@H](C)CC1,7.48
2,C[C@H]1CC[C@H](n2nncc2-c2cc(-c3ccccc3)sc2C(=O)O)CC1,6.22
3,Cc1ccc(-n2nncc2-c2cc(-c3ccccc3)sc2C(=O)O)cc1,5.40

# Biological target: RNA-directed RNA polymerase (Hepacivirus hominis, UniProt O39930, L419M)
# Sequence (O39930 entry or part of it L419M): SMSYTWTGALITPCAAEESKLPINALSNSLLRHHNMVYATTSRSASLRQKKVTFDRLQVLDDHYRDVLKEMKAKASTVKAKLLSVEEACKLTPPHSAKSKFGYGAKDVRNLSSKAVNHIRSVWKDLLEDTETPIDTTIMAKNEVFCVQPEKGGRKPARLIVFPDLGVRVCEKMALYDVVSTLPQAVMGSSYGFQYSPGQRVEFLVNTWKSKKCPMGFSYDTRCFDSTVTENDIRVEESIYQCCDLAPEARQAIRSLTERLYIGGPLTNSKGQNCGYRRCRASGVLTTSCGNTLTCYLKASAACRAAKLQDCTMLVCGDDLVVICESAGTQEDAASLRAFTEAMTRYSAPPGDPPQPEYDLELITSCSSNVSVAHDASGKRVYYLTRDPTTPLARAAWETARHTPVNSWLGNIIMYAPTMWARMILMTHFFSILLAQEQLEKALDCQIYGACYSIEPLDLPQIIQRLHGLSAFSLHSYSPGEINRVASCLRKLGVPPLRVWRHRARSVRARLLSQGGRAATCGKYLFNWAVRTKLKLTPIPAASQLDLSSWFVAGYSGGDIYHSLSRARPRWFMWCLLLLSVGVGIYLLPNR
# Experiment: Inhibition of HCV NS5B polymerase L419M mutant
# Settings: not given
row,Structure (SMILES),pKd
1,CC(C)N(c1cc(-c2ccccc2)sc1C(=O)O)C(=O)[C@H]1CC[C@H](C)CC1,6.37
2,C[C@H]1CC[C@H](n2nncc2-c2cc(-c3ccccc3)sc2C(=O)O)CC1,5.35
3,Cc1ccc(-n2nncc2-c2cc(-c3ccccc3)sc2C(=O)O)cc1,4.64
